In US7728174B2, “Continuous hydrogenation processes for the preparation of xylylenediamines” (BASF SE, priority 2005, dated 2010):

Test: solubility of IPN in ammonia, meta-xylylenediamine and their mixtures
Type: physicochemical

N#Cc1cccc(C#N)c1 [IPN, 1,3-dicyanobenzene]
solubility of IPN in the mixture (Example 1 mixture: 178 g/h circulation stream [13] and 94 g/h fresh ammonia, at 60° C.): about 30 % by weight
solubility of IPN in the mixture (Example 2 mixture: 320 g/h circulation stream [13] and 40 g/h fresh ammonia, at 60° C.): about 25 % by weight
solubility of IPN (in MXDA, at 70° C.): approx. 20 % by weight
solubility of IPN (in NH3, at 60° C.): approx. 44 % by weight
solubility of IPN (in a mixture of approximately equal parts by mass of meta-xylylenediamine and liquid ammonia, at 60° C.): approx. 30 % by weight
solubility of IPN (in meta-xylylenediamine, at 60° C.): approx. 15 % by weight
